In ChEMBL document CHEMBL3351718 (Bioorg Med Chem Lett, 2014):

What was measured:
[1] = biological target: Hepatocyte growth factor receptor (Homo sapiens, UniProt P08581); test: Inhibition of recombinant MET kinase domain (unknown origin)
[2] = biological target: Vascular endothelial growth factor receptor 2 (Homo sapiens, UniProt P35968); test: Inhibition of recombinant VEGFR2 kinase domain (unknown origin)
[3] = biological target: Mast/stem cell growth factor receptor Kit (Homo sapiens, UniProt P10721); test: Inhibition of c-Kit (unknown origin)
[4] = biological target: Proto-oncogene tyrosine-protein kinase receptor Ret (Homo sapiens, UniProt P07949); test: Inhibition of RET (unknown origin)
[5] = test system: HUVEC; test: Growth inhibition of HUVEC cells; conditions: Homo sapiens
[6] = Growth inhibition of human MKN45 cells; conditions: MKN-45

Chain of Hepatocyte growth factor receptor (P08581 whole entry, the tested form may be a part): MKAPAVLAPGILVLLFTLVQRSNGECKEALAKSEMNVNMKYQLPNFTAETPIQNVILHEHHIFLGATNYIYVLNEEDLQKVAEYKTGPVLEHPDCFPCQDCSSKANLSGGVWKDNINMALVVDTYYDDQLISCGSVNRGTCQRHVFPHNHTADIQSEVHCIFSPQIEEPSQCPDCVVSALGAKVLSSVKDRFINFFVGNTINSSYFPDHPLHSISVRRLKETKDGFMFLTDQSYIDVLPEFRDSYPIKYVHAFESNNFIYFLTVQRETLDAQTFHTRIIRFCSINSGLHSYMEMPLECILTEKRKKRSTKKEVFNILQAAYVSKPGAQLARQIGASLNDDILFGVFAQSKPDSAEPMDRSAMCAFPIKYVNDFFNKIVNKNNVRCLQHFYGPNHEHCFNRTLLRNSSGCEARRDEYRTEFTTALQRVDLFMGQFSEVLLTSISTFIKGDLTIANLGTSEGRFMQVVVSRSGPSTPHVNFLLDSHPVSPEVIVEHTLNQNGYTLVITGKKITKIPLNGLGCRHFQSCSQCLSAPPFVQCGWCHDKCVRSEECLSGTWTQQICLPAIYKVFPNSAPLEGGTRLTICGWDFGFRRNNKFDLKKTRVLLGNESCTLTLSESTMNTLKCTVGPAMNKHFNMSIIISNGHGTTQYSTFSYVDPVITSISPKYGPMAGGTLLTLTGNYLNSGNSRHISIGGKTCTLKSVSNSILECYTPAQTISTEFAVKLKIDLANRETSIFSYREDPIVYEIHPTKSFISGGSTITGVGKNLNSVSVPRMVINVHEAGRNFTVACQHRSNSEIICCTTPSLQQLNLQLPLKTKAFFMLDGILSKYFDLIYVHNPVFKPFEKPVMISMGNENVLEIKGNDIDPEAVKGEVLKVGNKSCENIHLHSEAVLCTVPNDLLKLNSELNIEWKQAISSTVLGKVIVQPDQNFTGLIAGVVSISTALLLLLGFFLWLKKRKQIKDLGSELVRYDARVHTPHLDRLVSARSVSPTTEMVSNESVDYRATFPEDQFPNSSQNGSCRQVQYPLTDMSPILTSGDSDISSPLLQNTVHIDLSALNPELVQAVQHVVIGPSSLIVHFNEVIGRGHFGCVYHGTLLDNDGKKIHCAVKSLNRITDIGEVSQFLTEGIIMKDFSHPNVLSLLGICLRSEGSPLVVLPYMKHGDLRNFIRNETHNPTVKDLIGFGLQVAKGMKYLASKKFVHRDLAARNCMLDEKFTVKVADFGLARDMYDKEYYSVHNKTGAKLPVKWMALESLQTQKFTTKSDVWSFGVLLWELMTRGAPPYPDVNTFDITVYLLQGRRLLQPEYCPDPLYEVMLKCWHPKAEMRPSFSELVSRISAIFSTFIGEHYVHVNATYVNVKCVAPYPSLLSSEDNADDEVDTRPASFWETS
Chain of Vascular endothelial growth factor receptor 2 (P35968 whole entry, the tested form may be a part): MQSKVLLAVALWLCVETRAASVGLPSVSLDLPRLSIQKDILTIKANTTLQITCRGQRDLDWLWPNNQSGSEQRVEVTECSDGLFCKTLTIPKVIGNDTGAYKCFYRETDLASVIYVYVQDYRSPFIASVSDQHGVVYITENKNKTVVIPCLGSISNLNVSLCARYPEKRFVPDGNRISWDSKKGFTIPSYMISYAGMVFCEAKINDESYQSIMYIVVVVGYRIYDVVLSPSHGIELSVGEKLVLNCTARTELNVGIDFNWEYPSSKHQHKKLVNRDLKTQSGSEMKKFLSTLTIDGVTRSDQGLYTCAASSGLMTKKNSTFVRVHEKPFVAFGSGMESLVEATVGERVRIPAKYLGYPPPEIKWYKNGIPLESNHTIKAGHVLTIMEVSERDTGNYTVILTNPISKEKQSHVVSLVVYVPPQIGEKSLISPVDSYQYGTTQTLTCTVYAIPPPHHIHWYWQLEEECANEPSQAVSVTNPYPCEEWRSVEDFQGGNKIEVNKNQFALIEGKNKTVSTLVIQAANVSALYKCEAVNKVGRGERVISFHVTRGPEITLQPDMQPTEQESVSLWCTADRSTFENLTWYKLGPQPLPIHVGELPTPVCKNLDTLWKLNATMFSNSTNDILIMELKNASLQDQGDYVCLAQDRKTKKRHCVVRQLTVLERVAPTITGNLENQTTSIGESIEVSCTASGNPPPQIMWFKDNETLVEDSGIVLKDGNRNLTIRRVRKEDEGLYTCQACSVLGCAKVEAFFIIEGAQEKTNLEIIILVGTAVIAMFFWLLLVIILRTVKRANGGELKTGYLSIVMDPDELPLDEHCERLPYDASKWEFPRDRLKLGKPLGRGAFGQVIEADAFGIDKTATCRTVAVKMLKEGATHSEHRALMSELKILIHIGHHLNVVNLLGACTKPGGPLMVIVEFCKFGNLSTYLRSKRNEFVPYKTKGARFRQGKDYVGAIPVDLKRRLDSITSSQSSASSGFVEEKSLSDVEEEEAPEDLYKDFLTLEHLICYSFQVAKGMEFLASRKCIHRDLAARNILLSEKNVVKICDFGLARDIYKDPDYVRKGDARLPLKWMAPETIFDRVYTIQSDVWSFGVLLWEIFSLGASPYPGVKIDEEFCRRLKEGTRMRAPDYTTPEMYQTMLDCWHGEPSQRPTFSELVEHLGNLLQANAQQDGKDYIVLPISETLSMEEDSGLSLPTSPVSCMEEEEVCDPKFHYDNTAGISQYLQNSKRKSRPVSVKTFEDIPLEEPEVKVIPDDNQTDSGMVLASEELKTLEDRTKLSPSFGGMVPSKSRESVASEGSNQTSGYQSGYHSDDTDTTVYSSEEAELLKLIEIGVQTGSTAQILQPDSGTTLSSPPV
Chain of Mast/stem cell growth factor receptor Kit (P10721 whole entry): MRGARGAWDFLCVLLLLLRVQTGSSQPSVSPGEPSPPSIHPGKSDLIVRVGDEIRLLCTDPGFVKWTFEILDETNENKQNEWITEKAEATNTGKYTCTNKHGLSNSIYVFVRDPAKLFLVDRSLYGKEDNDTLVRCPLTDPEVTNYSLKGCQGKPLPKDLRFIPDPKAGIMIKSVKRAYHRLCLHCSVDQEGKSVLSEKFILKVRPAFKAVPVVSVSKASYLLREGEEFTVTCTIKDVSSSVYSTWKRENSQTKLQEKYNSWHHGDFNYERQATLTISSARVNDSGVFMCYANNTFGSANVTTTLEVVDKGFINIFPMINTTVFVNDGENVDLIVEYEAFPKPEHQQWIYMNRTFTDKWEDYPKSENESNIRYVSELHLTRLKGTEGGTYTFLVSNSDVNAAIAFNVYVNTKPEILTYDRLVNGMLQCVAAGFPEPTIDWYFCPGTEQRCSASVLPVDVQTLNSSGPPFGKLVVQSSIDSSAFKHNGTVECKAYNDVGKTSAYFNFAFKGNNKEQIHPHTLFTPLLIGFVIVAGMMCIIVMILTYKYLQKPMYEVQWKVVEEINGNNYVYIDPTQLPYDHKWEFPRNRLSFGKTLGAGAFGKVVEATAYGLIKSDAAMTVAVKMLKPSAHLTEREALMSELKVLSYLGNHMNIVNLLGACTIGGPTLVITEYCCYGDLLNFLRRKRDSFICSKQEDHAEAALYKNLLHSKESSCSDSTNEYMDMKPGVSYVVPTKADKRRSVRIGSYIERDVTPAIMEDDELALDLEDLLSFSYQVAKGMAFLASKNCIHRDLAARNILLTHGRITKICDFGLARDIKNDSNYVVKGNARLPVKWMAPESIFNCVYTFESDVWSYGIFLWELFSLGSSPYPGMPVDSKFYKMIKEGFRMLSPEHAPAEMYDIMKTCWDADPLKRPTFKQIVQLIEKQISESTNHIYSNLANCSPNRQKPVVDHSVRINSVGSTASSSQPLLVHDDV
Chain of Proto-oncogene tyrosine-protein kinase receptor Ret (P07949 whole entry): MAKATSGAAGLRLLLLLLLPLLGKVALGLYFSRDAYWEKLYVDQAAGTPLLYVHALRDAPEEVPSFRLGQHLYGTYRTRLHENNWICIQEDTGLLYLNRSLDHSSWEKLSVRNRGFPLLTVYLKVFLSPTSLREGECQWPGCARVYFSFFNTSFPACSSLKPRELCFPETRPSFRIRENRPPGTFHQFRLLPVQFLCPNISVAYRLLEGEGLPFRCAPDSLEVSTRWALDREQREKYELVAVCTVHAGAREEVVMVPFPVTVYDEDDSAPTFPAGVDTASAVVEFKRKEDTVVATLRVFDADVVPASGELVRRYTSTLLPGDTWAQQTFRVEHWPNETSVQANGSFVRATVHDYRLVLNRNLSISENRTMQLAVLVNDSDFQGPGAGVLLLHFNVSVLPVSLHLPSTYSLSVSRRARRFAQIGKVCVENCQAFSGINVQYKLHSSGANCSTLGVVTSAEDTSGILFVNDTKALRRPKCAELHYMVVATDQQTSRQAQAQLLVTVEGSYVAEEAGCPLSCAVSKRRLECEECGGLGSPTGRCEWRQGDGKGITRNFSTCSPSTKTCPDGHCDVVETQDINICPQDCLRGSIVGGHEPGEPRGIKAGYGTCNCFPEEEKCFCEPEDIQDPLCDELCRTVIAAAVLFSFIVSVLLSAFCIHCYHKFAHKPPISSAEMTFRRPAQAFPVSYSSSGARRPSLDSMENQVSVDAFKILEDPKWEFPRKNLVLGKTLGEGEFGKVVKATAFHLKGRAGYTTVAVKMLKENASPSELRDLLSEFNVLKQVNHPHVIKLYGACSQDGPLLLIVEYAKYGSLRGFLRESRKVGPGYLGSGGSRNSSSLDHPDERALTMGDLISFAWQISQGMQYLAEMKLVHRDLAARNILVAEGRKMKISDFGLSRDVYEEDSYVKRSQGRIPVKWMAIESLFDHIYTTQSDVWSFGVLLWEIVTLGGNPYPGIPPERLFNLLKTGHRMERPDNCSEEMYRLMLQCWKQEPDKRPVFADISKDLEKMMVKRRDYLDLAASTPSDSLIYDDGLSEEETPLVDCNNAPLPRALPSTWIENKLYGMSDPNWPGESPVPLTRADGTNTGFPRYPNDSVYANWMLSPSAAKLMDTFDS

| Compound | IC50 [1] | IC50 [2] | other results |
| --- | --- | --- | --- |
| Nc1nccc(Oc2ccc(-n3ccc(C(=O)NCc4ccc(F)cc4)cc3=O)cc2F)c1Cl | > 25 µM |  |  |
| COc1cc(=O)n(-c2ccc(Oc3ccnc(N)c3I)c(F)c2)cc1C(=O)NCc1ccc(F)cc1 |  | > 25 µM | IC50 [3]: > 25 µM; IC50 [4]: > 25 µM; IC50 [5]: 2.41 µM; IC50 [6]: > 25 µM |
| COc1cc(=O)n(-c2ccc(Oc3ccnc(N)c3Cl)c(F)c2)cc1C(=O)NCc1ccc(F)cc1 |  | > 25 µM | IC50 [3]: > 25 µM; IC50 [4]: > 25 µM; IC50 [5]: 2.41 µM; IC50 [6]: > 25 µM |
| Nc1nccc(Oc2ccc(-n3cccc(C(=O)NCc4ccc(F)cc4)c3=O)cc2F)c1Cl | > 25 µM |  |  |

Now from value to compound, other results behind:

| IC50 [1] | IC50 [2] | Compound | other results |
| --- | --- | --- | --- |
| > 25 µM |  | Nc1nccc(Oc2ccc(-n3cc(C(=O)Nc4ccc(F)cc4)ccc3=O)cc2F)c1Cl |  |
| > 25 µM |  | Nc1nccc(Oc2ccc(-n3cccc(C(=O)Nc4ccc(F)cc4)c3=O)cc2F)c1Cl |  |
| > 25 µM |  | Nc1nccc(Oc2ccc(-n3ccc(C(=O)Nc4ccc(F)cc4)cc3=O)cc2F)c1Cl |  |
|  | > 25 µM | Nc1nccc(Oc2ccc(-n3cc(C(=O)NCc4ccc(F)cc4)ccc3=O)cc2F)c1Cl |  |
